The test system of assay [1] is Phosphorylation of ERK1/2 in MIA PaCa-2 cells. The assay is described as follows: Phospho-ERK1/2 MSD assay in MIA PaCa-2 cells. As to conditions: Homo sapiens, MIA PaCa-2, 2 h, read-out: p-ERK IC50 (2 h, MiaPaCa-2; μM). Format: cell-based. The procedure, abridged: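 Phospho-ERK1/2 measured by MSD electrochemiluminescence kit in RIPA lysates of MIA PaCa-2 cells. Cells were treated with compound titrations for 2 or 4 h at 37 °C, 5% CO2, followed by a 10 min pulse of 10 ng/mL EGF.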

Assay [2] concerns Phosphorylation of ERK1/2 in A549 cells. The assay is described as follows: Phospho-ERK1/2 MSD assay in A549 cells. As to conditions: Homo sapiens, A549, 2 h, read-out: p-ERK IC50 (2 h, A549; μM). Type of assay: cell-based. The gist of the method: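 Dose-response treatment lasted 2 or 4 h in RPMI 1640/10% FBS at 37 °C. EGF-stimulated (10 ng/mL, 10 min) ERK1/2 phosphorylation was then quantified in cell lysates with a Meso Scale Discovery phospho-ERK1/2 assay.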

The target of assay [3] is GDP-bound KRAS protein (aa 1-169), containing both G12C and C118A amino acid substitutions (Homo sapiens (Human), UniProt P01116, C118A/G12C). Kind of assay: Coupled nucleotide exchange assay (SOS-mediated nucleotide exchange, AlphaScreen). Type of assay: biochemical. Conditions: 5 min compound pre-incubation; for IC50: read-out: Coupled exchange IC50 (5 min; μM). Background: In Alpha technology, singlet oxygen from a donor bead excites a nearby acceptor bead.

Where [4] appears, read: 2 h compound treatment, MIA PaCa-2 cells, EGF stimulated.
Where [5] appears, read: 2 h compound treatment, A549 cells, EGF stimulated.

Read-outs that look alike come from different tables or passages of the source. Where only a bound is given, the exact number is not on record here.

GDP-bound KRAS protein (aa 1-169), containing both G12C and C118A amino acid substitutions, sequence (P01116 other isoform, or with tags, fused parts or gaps G12C/C118A): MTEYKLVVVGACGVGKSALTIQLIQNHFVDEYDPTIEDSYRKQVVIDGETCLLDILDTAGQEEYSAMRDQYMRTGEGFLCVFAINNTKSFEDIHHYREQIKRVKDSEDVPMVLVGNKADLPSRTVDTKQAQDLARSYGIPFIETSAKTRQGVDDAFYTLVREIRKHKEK

As usually defined, the IC50 is the midpoint of a concentration-inhibition curve. As to `C=CC(=O)N1C[C@H](C)N(c2nc(=O)n(-c3c(C(C)C)nc(OCCN(C)C)nc3C(C)C)c3nc(-c4ccccc4F)c(Cl)cc23)C[C@H]1C` [Example 157, 4-((2S,5R)-4-Acryloyl-2,5-dimethylpiperazin-1-yl)-6-chloro-1-(2-(2-(dimethylamino)ethoxy)-4,6-diisopropylpyrimidin-5-yl)-7-(2-fluorophenyl)pyrido[2,3-d]pyrimidin-2(1H)-one], the half-maximal inhibitory concentration (IC50) was 0.07 µM in assay [1] (setting [4]), > 7.5 µM in assay [2] (setting [5]) and 0.064 µM in assay [3].

As to `C=CC(=O)N1C[C@H](C)N(c2nc(=O)n(-c3c(C(C)C)nc(S(=O)(=O)CCC)nc3C(C)C)c3nc(-c4ccccc4F)c(Cl)cc23)C[C@H]1C` [Example 158, 4-((2S,5R)-4-Acryloyl-2,5-dimethylpiperazin-1-yl)-6-chloro-1-(4,6-diisopropyl-2-(propylsulfonyl)pyrimidin-5-yl)-7-(2-fluorophenyl)pyrido[2,3-d]pyrimidin-2(1H)-one], the IC50 worked out at 0.191 µM in assay [1] (setting [4]), 3.83 µM in assay [2] (setting [5]) and 0.189 µM in assay [3].

Take `C=CC(=O)N1C[C@H](C)N(c2nc(=O)n(-c3c(C(C)C)nc(C=C)nc3C(C)C)c3nc(-c4ccccc4F)c(Cl)cc23)C[C@H]1C` [Example 159, 4-((2S,5R)-4-Acryloyl-2,5-dimethylpiperazin-1-yl)-6-chloro-1-(4,6-diisopropyl-2-vinylpyrimidin-5-yl)-7-(2-fluorophenyl)pyrido[2,3-d]pyrimidin-2(1H)-one]: the values for the IC50 in assay [1] (setting [4]), in assay [2] (setting [5]) and in assay [3] were 0.119 µM, 3.04 µM and 0.046 µM, respectively.

Take `C=CC(=O)N1C[C@H](C)N(c2nc(=O)n(-c3c(C(C)C)nc(CN4CCC4)nc3C(C)C)c3nc(-c4ccccc4F)c(Cl)cc23)C[C@H]1C` [Example 161, 1-[2-(Azetidin-1-ylmethyl)-4,6-diisopropyl-pyrimidin-5-yl]-6-chloro-4-[(2S,5R)-2,5-dimethyl-4-prop-2-enoyl-piperazin-1-yl]-7-(2-fluorophenyl)pyrido[2,3-d]pyrimidin-2-one]: the IC50 in assay [1] was 0.061 µM; in assay [2] it was > 7.5 µM; in assay [3], 0.294 µM.

For `C=CC(=O)N1C[C@H](C)N(c2nc(=O)n(-c3c(C(C)C)nc(CN4CCOCC4)nc3C(C)C)c3nc(-c4ccccc4F)c(Cl)cc23)C[C@H]1C` [Example 162, 6-Chloro-1-[4,6-diisopropyl-2-(morpholinomethyl)pyrimidin-5-yl]-4-[(2S,5R)-2,5-dimethyl-4-prop-2-enoyl-piperazin-1-yl]-7-(2-fluorophenyl)pyrido[2,3-d]pyrimidin-2-one], the IC50 in assay [1] (setting [4]) was 0.078 µM; in assay [2] (setting [5]), > 7.5 µM; in assay [3] it was 0.133 µM.

Turning to `C=CC(=O)N1C[C@H](C)N(c2nc(=O)n(-c3c(C(C)C)nc(CN4CCCC4)nc3C(C)C)c3nc(-c4ccccc4F)c(Cl)cc23)C[C@H]1C` [Example 163, 6-Chloro-1-[4,6-diisopropyl-2-(pyrrolidin-1-ylmethyl)pyrimidin-5-yl]-4-[(2S,5R)-2,5-dimethyl-4-prop-2-enoyl-piperazin-1-yl]-7-(2-fluorophenyl)pyrido[2,3-d]pyrimidin-2-one], the IC50 in assay [1] (setting [4]) was 0.055 µM; in assay [2] (setting [5]), > 7.5 µM; in assay [3], 0.127 µM.

Consider `C=CC(=O)N1C[C@H](C)N(c2nc(=O)n(-c3c(C(C)C)nc(C)nc3C(C)C)c3nc(-c4ccccc4F)c(Cl)cc23)C[C@H]1C` [Example 167, 6-Chloro-1-(4,6-diisopropyl-2-methyl-pyrimidin-5-yl)-4-[(2S,5R)-2,5-dimethyl-4-prop-2-enoyl-piperazin-1-yl]-7-(2-fluorophenyl)pyrido[2,3-d]pyrimidin-2-one], for which the results for the IC50 in assay [1] (setting [4]), in assay [2] (setting [5]) and in assay [3] were 0.083 µM, > 7.5 µM and 0.052 µM, respectively.

As for `C=CC(=O)N1C[C@H](C)N(c2nc(=O)n(-c3c(C(C)C)nc(C4CC4)nc3C(C)C)c3nc(-c4ccccc4F)c(Cl)cc23)C[C@H]1C` [Example 168, 6-Chloro-1-(2-cyclopropyl-4,6-diisopropyl-pyrimidin-5-yl)-4-[(2S,5R)-2,5-dimethyl-4-prop-2-enoyl-piperazin-1-yl]-7-(2-fluorophenyl)pyrido[2,3-d]pyrimidin-2-one], the IC50 is 0.198 µM in assay [1] (setting [4]), 4.34 µM in assay [2] (setting [5]) and 0.096 µM in assay [3].

Take `C=CC(=O)N1C[C@H](C)N(c2nc(=O)n(-c3c(C(C)C)nc(CN4CCN(C)CC4)nc3C(C)C)c3nc(-c4ccccc4F)c(Cl)cc23)C[C@H]1C` [Example 170, 6-Chloro-1-[4,6-diisopropyl-2-[(4-methylpiperazin-1-yl)methyl]pyrimidin-5-yl]-4-[(2S,5R)-2,5-dimethyl-4-prop-2-enoyl-piperazin-1-yl]-7-(2-fluorophenyl)pyrido[2,3-d]pyrimidin-2-one]: the IC50 in assay [1] (setting [4]) is 0.077 µM; in assay [2] (setting [5]), > 7.5 µM; in assay [3], 0.064 µM.

Regarding `C=CC(=O)N1C[C@H](C)N(c2nc(=O)n(-c3c(C(C)C)ncnc3C(C)C)c3nc(-c4ccccc4C(F)(F)F)c(Cl)cc23)C[C@H]1C` [Example 172, 6-Chloro-1-(4,6-diisopropylpyrimidin-5-yl)-4-[(2S,5R)-2,5-dimethyl-4-prop-2-enoyl-piperazin-1-yl]-7-[2-(trifluoromethyl)phenyl]pyrido[2,3-d]pyrimidin-2-one], the IC50 in assay [1] (setting [4]) was 0.099 µM; in assay [2] (setting [5]), > 7.5 µM; in assay [3], 0.08 µM.

For the molecule `C=CC(=O)N1C[C@H](C)N(c2nc(=O)n(-c3c(C(C)C)ncnc3C(C)C)c3nc(-c4cc(O)ccc4C)c(Cl)cc23)C[C@H]1C` [Example 174, 6-Chloro-1-(4,6-diisopropylpyrimidin-5-yl)-4-[(2S,5R)-2,5-dimethyl-4-prop-2-enoyl-piperazin-1-yl]-7-(5-hydroxy-2-methyl-phenyl)pyrido[2,3-d]pyrimidin-2-one], the IC50 in assay [1] (setting [4]) was 0.082 µM; in assay [2] (setting [5]), > 7.5 µM. Further, the “Coupled exchange IC50 (5 min; μM)” value in assay [3] worked out at 0.069 µM.

On to `C=CC(=O)N1CCN(c2nc(CN3CCOCC3)c(-c3ccccc3C(C)C)c3nc(-c4ccccc4F)c(Cl)cc23)CC1` [Example 181, 1-(4-(3-Chloro-2-(2-fluorophenyl)-8-(2-isopropylphenyl)-7-(morpholinomethyl)-1,6-naphthyridin-5-yl)piperazin-1-yl)prop-2-en-1-one], for which the IC50 is 10 µM in assay [1] (setting [4]), > 7.5 µM in assay [2] (setting [5]) and 4.53 µM in assay [3].

Consider `C=CC(=O)N1C[C@H](C)N(c2nc(=N)n(-c3ccccc3C(C)C)c3nc(-c4ccccc4F)c(Cl)cc23)C[C@H]1C` [Example 185, 1-((2R,5S)-4-(6-Chloro-7-(2-fluorophenyl)-2-imino-1-(2-isopropylphenyl)-1,2-dihydropyrido[2,3-d]pyrimidin-4-yl)-2,5-dimethylpiperazin-1-yl)prop-2-en-1-one], for which the IC50 in assay [1] (setting [4]) was 0.08 µM; in assay [2] (setting [5]), > 7.5 µM; in assay [3], 0.055 µM.

For `C=CC(=O)N1C[C@H](C)N(c2nc(=O)n(-c3ccccc3C(C)C)c3nc(-c4ccccc4F)c(Cl)cc23)C[C@H]1C` [Example 186, 4-((2S,5R)-4-Acryloyl-2,5-dimethylpiperazin-1-yl)-6-chloro-7-(2-fluorophenyl)-1-(2-isopropylphenyl)pyrido[2,3-d]pyrimidin-2(1H)-one], the IC50 in assay [1] (setting [4]) is 0.199 µM; in assay [2] (setting [5]) it was > 7.5 µM; in assay [3] it was 0.093 µM.

`C=CC(=O)N1C[C@H](C)N(c2nc(=O)n(-c3c(C(C)C)nc(N(C)C(C)=O)nc3C(C)C)c3nc(-c4ccccc4F)c(Cl)cc23)C[C@H]1C` [Example 187, N-[5-[6-Chloro-4-[(2S,5R)-2,5-dimethyl-4-prop-2-enoyl-piperazin-1-yl]-7-(2-fluorophenyl)-2-oxo-pyrido[2,3-d]pyrimidin-1-yl]-4,6-diisopropyl-pyrimidin-2-yl]-N-methyl-acetamide]: the figures for the IC50 in assay [1] (setting [4]) and in assay [2] (setting [5]) were 0.081 µM and 0.317 µM, respectively. Also, the “Coupled exchange IC50 (5 min; μM)” value in assay [3] turned out to be 0.09 µM.

Take `C=CC(=O)N1C[C@H](C)N(c2nc(=O)n(-c3c(C(C)C)nc(NC(C)=O)nc3C(C)C)c3nc(-c4ccccc4F)c(Cl)cc23)C[C@H]1C` [Example 188, N-[5-[6-Chloro-4-[(2S,5R)-2,5-dimethyl-4-prop-2-enoyl-piperazin-1-yl]-7-(2-fluorophenyl)-2-oxo-pyrido[2,3-d]pyrimidin-1-yl]-4,6-diisopropyl-pyrimidin-2-yl]acetamide]: the IC50 was 0.04 µM in assay [1] (setting [4]) and 4.98 µM in assay [2] (setting [5]). Also, the “Coupled exchange IC50 (5 min; μM)” value in assay [3] is 0.038 µM.

`C=CC(=O)N1C[C@H](C)N(c2nc(=O)n(-c3c(N)ncnc3C(C)C)c3nc(-c4ccccc4F)c(Cl)cc23)C[C@H]1C` [Example 189, 4-((2S,5R)-4-Acryloyl-2,5-dimethylpiperazin-1-yl)-1-(4-amino-6-isopropylpyrimidin-5-yl)-6-chloro-7-(2-fluorophenyl)pyrido[2,3-d]pyrimidin-2(1H)-one]: the values for the IC50 in assay [1] (setting [4]), in assay [2] (setting [5]) and in assay [3] were 0.209 µM, > 7.5 µM and 0.158 µM, respectively.
